Data reported in US8394807B2, “Quinazoline inhibitors of BACE 1 and methods of using” (Purdue Research Foundation, priority 2008, dated 2013).
pIC50, pKi: −log10 of the molar value.

Each compound was assayed against memapsin 2 (Homo sapiens, UniProt P56817) (assay: Inhibition of memapsin 2 catalytic activity toward fluorogenic substrate FS-2). Settings: pH 4, 37° C., 20 minutes pre-incubation, tight-binding model; symbol outside parentheses; read-out: Activity against memapsin 2: Ki.
Format: biochemical
Protocol: Inhibition Of Memapsin 2. […] Potency of compounds were determined by measurement of their inhibition of memapsin 2 catalytic activity toward a fluorescent substrate. […] Briefly, assays were performed at pH 4, 37° C., by pre-incubation of memapsin 2 enzyme with compound for 20 minutes. Activity measure was initiated by addition of a fluorogenic substrate FS-2 (Bachem Americas, Torrance, Calif.). Fluorescent signal increase over time was measured as a rate of hydrolysis of the peptide substrate. […]

Sequence of memapsin 2 (Homo sapiens, UniProt P56817) (P56817 46-501): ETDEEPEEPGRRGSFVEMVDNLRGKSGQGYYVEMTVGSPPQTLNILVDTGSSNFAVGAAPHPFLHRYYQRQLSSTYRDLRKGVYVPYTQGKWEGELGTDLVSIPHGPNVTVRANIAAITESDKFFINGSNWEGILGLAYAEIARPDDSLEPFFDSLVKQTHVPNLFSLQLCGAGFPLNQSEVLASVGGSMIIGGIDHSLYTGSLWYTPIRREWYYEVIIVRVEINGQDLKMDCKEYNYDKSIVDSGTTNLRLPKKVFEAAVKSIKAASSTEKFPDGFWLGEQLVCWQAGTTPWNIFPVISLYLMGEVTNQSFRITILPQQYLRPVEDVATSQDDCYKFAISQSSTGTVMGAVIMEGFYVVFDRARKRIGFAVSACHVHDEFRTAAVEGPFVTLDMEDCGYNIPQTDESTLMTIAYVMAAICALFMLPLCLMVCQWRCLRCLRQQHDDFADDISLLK

Structure (SMILES)	pKi
Cc1csc(CN(CCC[C@@H](C2CCCCC2)N2Cc3cc(Oc4ccccc4)ccc3N=C2N)C2CCCCC2)n1 [Inhibitor 409]	> 6.30
CC(NCC[C@@H](C1CCCCC1)N1Cc2cc(Oc3ccccc3)ccc2N=C1N)c1ccccc1 (some centres unmarked) [Inhibitor 0438]	> 6.30
CN(CCC[C@@H](C1CCCCC1)N1Cc2cc(Oc3ccccc3)ccc2N=C1N)C1CCCCC1 [Inhibitor 0188]	> 7.30
CN(CCC[C@@H](C1CCCOC1)N1Cc2cc(Oc3ccccc3)ccc2N=C1N)C1CCCCC1 (some centres unmarked) [Inhibitor 0408]	> 6.30
Cc1nc(CN(CCC[C@@H](C2CCCCC2)N2Cc3cc(Oc4ccccc4)ccc3N=C2N)C2CCCCC2)c(C)o1 [Inhibitor 0509]	> 6.30
CN(CCC[C@@H](c1ccccc1)N1Cc2cc(Oc3ccccc3)ccc2N=C1N)C1CCCCC1 [Inhibitor 0418]	> 5.30
COC[C@@H](NC(=O)OC[C@@H](C1CCCCC1)N1Cc2cc(Oc3ccccc3)ccc2N=C1N)C(=O)OC [Inhibitor 0469]	> 6.30
CN(CCC[C@@H](C1CCCCC1)N1Cc2cc(Oc3ccccc3)ccc2N=C1N)c1ccccc1 [Inhibitor 0538]	> 6.30
Cc1nc(CN(C(=O)OC[C@@H](C2CCCCC2)N2Cc3cc(Oc4ccccc4)ccc3N=C2N)C2CCCCC2)co1 [Inhibitor 0519]	> 5.30
NC1=Nc2ccc(Oc3ccccc3)cc2CN1[C@@H](CCNCC1CCCCC1)C1CCCCC1 [Inhibitor 0428]	> 6.30
CN(C(=O)OC[C@@H](C1CCCCC1)N1Cc2cc(Oc3ccccc3)ccc2N=C1N)C1CCCCC1 [Inhibitor 0458]	> 7.30
NC1=Nc2ccc(Oc3ccccc3)cc2CN1[C@@H](CCN(Cc1ccccc1)Cc1ccccc1)C1CCCCC1 [Inhibitor 0448]	> 6.30
CN(C(=O)OC[C@@H](c1ccccc1)N1Cc2cc(Oc3ccccc3)ccc2N=C1N)C1CCCCC1 [Inhibitor 0328]	> 5.30
CN(C(=O)OC[C@@H](C1CCCOC1)N1Cc2cc(Oc3ccccc3)ccc2N=C1N)C1CCCCC1 (some centres unmarked) [Inhibitor 0318]	> 6.30
CN(C(=O)OCC(C1CCOC1)N1Cc2cc(Oc3ccccc3)ccc2N=C1N)C1CCCCC1 (centres unmarked) [Inhibitor 0548]	> 6.30
Cc1csc(CN(C(=O)OC[C@@H](C2CCCCC2)N2Cc3cc(Oc4ccccc4)ccc3N=C2N)C2CCCCC2)n1 [Inhibitor 119]	> 6.30

Further lines, results first:

pKi	Structure (SMILES)
> 5.30	Cc1nc(CN(C(=O)OC[C@@H](C2CCCCC2)N2Cc3cc(Oc4ccccc4)ccc3N=C2N)C2CCCCC2)cs1 [Inhibitor 0579]
> 6.30	CC(C)c1nc(CN(CCC[C@@H](C2CCCCC2)N2Cc3cc(Oc4ccccc4)ccc3N=C2N)C2CCCCC2)cs1 [Inhibitor 0659]
> 6.30	NC1=Nc2ccc(Oc3ccccc3)cc2CN1[C@@H](COC(=O)NC1CCCCC1)C1CCCCC1 [Inhibitor 0658]
> 5.30	COCC(COC)N(C)C(=O)OC[C@@H](C1CCCCC1)N1Cc2cc(Oc3ccccc3)ccc2N=C1N [Inhibitor 1139]
> 6.30	COCc1nc(CN(CCC[C@@H](C2CCCCC2)N2Cc3cc(Oc4ccccc4)ccc3N=C2N)C2CCCCC2)cs1 [Inhibitor 1099]
> 6.30	CN(C(=O)OC[C@@H](C1CCCCC1)N1Cc2cc(Oc3ccccc3)ccc2N=C1N)C1CCCCC1O (some centres unmarked) [Inhibitor 0648]
> 6.30	COC[C@H](NC(=O)OC[C@@H](C1CCCCC1)N1Cc2cc(Oc3ccccc3)ccc2N=C1N)C(=O)OC [Inhibitor 0989]
> 6.30	Cc1nc(CCN(CCC[C@@H](C2CCCCC2)N2Cc3cc(Oc4ccccc4)ccc3N=C2N)C2CCCCC2)cs1 [Inhibitor 0809]
> 6.30	CN(CC[C@@H](C1CCCCC1)N1Cc2cc(Oc3ccccc3)ccc2N=C1N)Cc1ccccc1 [Inhibitor 0628]
> 5.30	CN(C)CC[C@@H](C1CCCCC1)N1Cc2cc(Oc3ccccc3)ccc2N=C1N [Inhibitor 0618]
> 6.30	Cn1cc(CN(CCC[C@@H](C2CCCCC2)N2Cc3cc(Oc4ccccc4)ccc3N=C2N)C2CCCCC2)cn1 [Inhibitor 1049]
> 6.30	Cc1ncoc1CN(CCC[C@@H](C1CCCCC1)N1Cc2cc(Oc3ccccc3)ccc2N=C1N)C1CCCCC1 [Inhibitor 0929]
> 6.30	NC1=Nc2ccc(Oc3ccccc3)cc2CN1[C@@H](CCCN(Cc1cscn1)C1CCCCC1)C1CCCCC1 [Inhibitor 0979]
> 7.30	NC1=Nc2ccc(Oc3ccccc3)cc2CN1[C@@H](CCCN(Cc1cn[nH]c1)C1CCCCC1)C1CCCCC1 [Inhibitor 1509]
> 6.30	Cc1nc(CCN(CCC[C@@H](C2CCCCC2)N2Cc3cc(Oc4ccccc4)ccc3N=C2N)C2CCCCC2)co1 [Inhibitor 0909]
> 6.30	Cc1nc(C)c(CN(CCC[C@@H](C2CCCCC2)N2Cc3cc(Oc4ccccc4)ccc3N=C2N)C2CCCCC2)o1 [Inhibitor 0789]
> 5.30	Cc1nc(CN(CCC[C@@H](C2CCCCC2)N2Cc3cc(Oc4cccnc4)ccc3N=C2N)C2CCCCC2)cs1 [Inhibitor 1209]
> 6.30	Cc1nc(CN(C(=O)OC[C@@H](C2CCCCC2)N2Cc3cc(Oc4ccccc4)ccc3N=C2N)C2CCCCC2)c(C)o1 [Inhibitor 908]
> 7.30	Cc1[nH]ncc1CN(CCC[C@@H](C1CCCCC1)N1Cc2cc(Oc3ccccc3)ccc2N=C1N)C1CCCCC1 [Inhibitor 1519]
> 6.30	Cc1nc(CN(CCC[C@@H](C2CCCCC2)N2Cc3cc(Oc4ccccc4)ccc3N=C2N)C2CCCCC2)cs1 [Inhibitor 0589]
> 5.30	Cc1nc(CN(CCC[C@@H](C2CCCCC2)N2Cc3cc(Oc4ccccn4)ccc3N=C2N)C2CCCCC2)cs1 [Inhibitor 1219]
> 6.30	NC1=Nc2ccc(Oc3ccccc3)cc2CN1[C@@H](COC(=O)NC1CCCCC1O)C1CCCCC1 (some centres unmarked) [Inhibitor 0668]
> 6.30	NC1=Nc2ccc(Oc3ccccc3)cc2CN1[C@@H](CCCN(Cc1ccoc1)C1CCCCC1)C1CCCCC1 [Inhibitor 1379]
> 6.30	CN(CCCC(C1CCOC1)N1Cc2cc(Oc3ccccc3)ccc2N=C1N)C1CCCCC1 (centres unmarked) [Inhibitor 0568]

What follows are compounds tested against T1, memapsin 2 (Cricetulus griseus, UniProt G3IAK4) (assay: Cellular Aβ IC50 determination (Aβ40 sandwich ELISA)). Settings: symbol in parentheses; Chinese hamster ovary cells over-expressing human APP695 (London and Swedish mutations), Aβ40, 24 h; read-out: Activity against memapsin 2: (IC50).
T1 construct: endogenous in cells; host or cells: Chinese hamster ovary cells over-expressing human APP695 (London and Swedish mutations)
T1 sequence (G3IAK4 22-501): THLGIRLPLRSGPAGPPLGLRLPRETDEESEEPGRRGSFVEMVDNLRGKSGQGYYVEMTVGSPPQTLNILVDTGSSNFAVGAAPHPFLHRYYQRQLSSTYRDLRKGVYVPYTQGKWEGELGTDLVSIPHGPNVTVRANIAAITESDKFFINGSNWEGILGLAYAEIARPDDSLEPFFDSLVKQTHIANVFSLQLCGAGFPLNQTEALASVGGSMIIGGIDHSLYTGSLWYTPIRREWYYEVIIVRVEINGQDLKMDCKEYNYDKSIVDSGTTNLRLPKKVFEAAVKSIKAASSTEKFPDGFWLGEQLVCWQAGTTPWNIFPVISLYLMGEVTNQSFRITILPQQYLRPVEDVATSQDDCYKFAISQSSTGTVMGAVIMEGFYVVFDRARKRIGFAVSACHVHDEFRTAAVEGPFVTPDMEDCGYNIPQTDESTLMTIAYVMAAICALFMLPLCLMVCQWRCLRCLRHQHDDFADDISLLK
Format: cell-based
Protocol: Cellular Aβ C50 Determinations. The potency of compounds against memapsin 2 catalytic activity is determined in a cellular assay of Aβ production. […] Chinese hamster ovary cells that over-express human APP695 with the London and Swedish mutations are seeded in multi-well plates at 10% confluency. Compounds are dissolved in DMSO to concentrations near 1 mM, and diluted into culture media to a final concentration near 4 μM (final 0.4% DMSO). Compounds are diluted serially and applied to cells in multi-well plates 48 h after seeding. Incubation is continued in 5% CO2 at 37 degrees C. for 24 h. Aliquots are removed and assayed for Aβ40 content using a sandwich ELISA (BioSource International). Amount of Aβ40 over the range of concentration of compounds, relative to control incubations, are fit to a 4-parameter IC50 model.

Structure (SMILES)	pIC50
CN(CCC[C@@H](C1CCCCC1)N1Cc2cc(Oc3ccccc3)ccc2N=C1N)C1CCCCC1 [Inhibitor 0188]	> 7.30
CN(CCC[C@@H](c1ccccc1)N1Cc2cc(Oc3ccccc3)ccc2N=C1N)C1CCCCC1 [Inhibitor 0418]	> 5.30
CN(C(=O)OC[C@@H](C1CCCCC1)N1Cc2cc(Oc3ccccc3)ccc2N=C1N)C1CCCCC1 [Inhibitor 0458]	< 5.30
NC1=Nc2ccc(Oc3ccccc3)cc2CN1[C@@H](CCN(Cc1ccccc1)Cc1ccccc1)C1CCCCC1 [Inhibitor 0448]	> 5.30
CN(C(=O)OC[C@@H](c1ccccc1)N1Cc2cc(Oc3ccccc3)ccc2N=C1N)C1CCCCC1 [Inhibitor 0328]	> 5.30
CN(C(=O)OC[C@@H](C1CCCOC1)N1Cc2cc(Oc3ccccc3)ccc2N=C1N)C1CCCCC1 (some centres unmarked) [Inhibitor 0318]	> 5.30
CN(C(=O)OCC(C1CCOC1)N1Cc2cc(Oc3ccccc3)ccc2N=C1N)C1CCCCC1 (centres unmarked) [Inhibitor 0548]	> 5.30
